# Measurements as given in patent publication US11559538B2, “Substituted 1,2-oxaborolan-2-ols as PDE4 inhibitors” (Pfizer Inc., priority 2018, dated 2023).
# Read-outs that look alike come from different tables or passages of the source.
# Legend:
# [1] = biological target: PDE4B (aa 152-484, Uniprot ID Q07343) (Homo sapiens (Human), UniProt Q07343); experiment: PDE4 SPA assay (scintillation proximity assay); type: biochemical; settings: read-out: PDE4B2 IC50
# How it was run: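 PDE4B (aa 152-484, ~81.6 pM) preincubated ~10 min with compound, then 1 μM ³H/unlabeled cAMP added in Tris pH 7.5, 1.3 mM MgCl2, 0.004% Brij 35, ~2% DMSO; 30 min at RT. Product captured on SPA beads and counted; IC50 by four-parameter logistic fit.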
# [2] = tested on: IL-4; experiment: Cytokine assay: IL-4 release from PHA-L stimulated human PBMCs; type: cell-based; settings: read-out: IL4 IC50
# How it was run: (§1)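 Thawed human PBMCs (about 250,000 per well) preincubated with compound (about 10 μM down by 4-fold dilution, 0.25% DMSO), then stimulated with 3.5 μg/mL PHA-L for 48 h at 37 °C. IL-4, IL-13 and IFNγ in supernatant measured by HTRF; IC50 from four-parameter logistic fit.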
# [3] = tested on: IL-13; experiment: Cytokine assay: IL-13 release from PHA-L stimulated human PBMCs; type: cell-based; settings: read-out: IL13 IC50
# How it was run: as §1
# [4] = tested on: IFNγ; experiment: Cytokine assay: IFNγ release from PHA-L stimulated human PBMCs; type: cell-based
# How it was run: as §1
# Chain of PDE4B (aa 152-484, Uniprot ID Q07343) (Q07343 324-656): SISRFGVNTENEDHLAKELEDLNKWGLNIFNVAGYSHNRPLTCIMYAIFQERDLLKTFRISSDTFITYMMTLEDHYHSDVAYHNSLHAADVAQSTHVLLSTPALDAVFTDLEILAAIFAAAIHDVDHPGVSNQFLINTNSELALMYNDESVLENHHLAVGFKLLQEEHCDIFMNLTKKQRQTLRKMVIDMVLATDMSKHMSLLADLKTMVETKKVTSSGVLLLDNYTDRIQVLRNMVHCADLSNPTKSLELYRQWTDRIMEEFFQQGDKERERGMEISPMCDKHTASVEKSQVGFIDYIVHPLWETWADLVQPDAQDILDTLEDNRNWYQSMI
Structure (SMILES),IC50 [1],"IC50 ([2]; Homo sapiens, PBMC)","IC50 ([3]; Homo sapiens, PBMC)","IC50 ([4]; Homo sapiens, PBMC)",IC50 [2],IC50 [3],IC50 [4]
"COc1ccc(-c2cccc(C3COB(O)C3)n2)cc1OC1CCCC1 (single isomer, unassigned) [Example 67, 4-(6-(3-(cyclopentyloxy)-4-methoxyphenyl)pyridin-2-yl)-1,2-oxaborolan-2-ol]",4.02 nM,,,,99.9 nM,759 nM,12.6 nM
"CCOc1cc(-c2cncc(C3COB(O)C3)c2)cc(F)c1OC (centres unmarked) [Example 44, 4-(5-(3-ethoxy-5-fluoro-4-methoxyphenyl)pyridin-3-yl)-1,2-oxaborolan-2-ol]",2.5 nM,7.22 nM,167 nM,1.34 nM,,,
"CCCOc1c(OC)ccc(-c2cccc(C3COB(O)C3)n2)c1F (centres unmarked) [Example 213, 4-(6-(2-fluoro-4-methoxy-3-propoxyphenyl)pyridin-2-yl)-1,2-oxaborolan-2-ol]",6.32 nM,80.9 nM,1980 nM,3.36 nM,,,
"CCCOc1cc(-c2cc(C3COB(O)C3)cnc2C)cnc1OC (single isomer, unassigned; enantiomer 1) [Example 219, (−) 4-(6′-methoxy-2-methyl-5′-propoxy-[3,3′-bipyridin]-5-yl)-1,2-oxaborolan-2-ol, enantiomer 1]",0.82 nM,4.1 nM,2130 nM,1.67 nM,,,
"COc1ccc(-c2cccc(C3COB(O)C3)n2)cc1OC1CCCC1 (single isomer, unassigned) [Example 66, 4-(6-(3-(cyclopentyloxy)-4-methoxyphenyl)pyridin-2-yl)-1,2-oxaborolan-2-ol]",2.15 nM,86.5 nM,,,,327 nM,0.71 nM
"CCCCCOc1cc(-c2cccc(C3COB(O)C3)c2)ccc1OC (centres unmarked) [Example 110, 4-(4′-methoxy-3′-(pentyloxy)-[1,1′-biphenyl]-3-yl)-1,2-oxaborolan-2-ol]",0.61 nM,48.4 nM,496 nM,5.1 nM,,,
"CCOc1cc(-c2cncc(C3COB(O)C3)c2)c(Cl)cc1OC (single isomer, unassigned) [Example 15, 4-(5-(2-chloro-5-ethoxy-4-methoxyphenyl)pyridin-3-yl)-1,2-oxaborolan-2-ol]",1.57 nM,1.41 nM,136 nM,0.71 nM,,,
"CCCOc1c(OC)ccc(-c2cccc(C3=CB(O)OC3)c2)c1C#N [Example 43, 3′-(2-hydroxy-2,5-dihydro-1,2-oxaborol-4-yl)-4-methoxy-3-propoxy-[1,1′-biphenyl]-2-carbonitrile]",8.23 nM,233 nM,10000 nM,76 nM,,,
"COc1ccc(-c2cncc(C3COB(O)C3)c2)cc1OC1CSC1 (centres unmarked) [Example 68, 4-(5-(4-methoxy-3-(thietan-3-yloxy)phenyl)pyridin-3-yl)-1,2-oxaborolan-2-ol]",0.47 nM,4.85 nM,369 nM,1.5 nM,,,
"CCCOc1cc(-c2cncc(C3COB(O)C3)c2)c(F)cc1OC (single isomer, unassigned) [Example 111, 4-(5-(2-fluoro-4-methoxy-5-propoxyphenyl)pyridin-3-yl)-1,2-oxaborolan-2-ol]",0.97 nM,3.01 nM,496 nM,2.95 nM,,,
"CCOc1cc(-c2cncc(C3COB(O)C3)c2)cc(F)c1OC (single isomer, unassigned; enantiomer 2) [Example 214, 4-(5-(3-ethoxy-5-fluoro-4-methoxyphenyl)pyridin-3-yl)-1,2-oxaborolan-2-ol, enantiomer 2]",4.92 nM,,,,20.7 nM,2000 nM,13.7 nM
"CCOc1c(OC)ccc(-c2cncc(C3COB(O)C3)c2)c1C(F)F (single isomer, unassigned) [Example 11, 4-(5-(2-(difluoromethyl)-3-ethoxy-4-methoxyphenyl)pyridin-3-yl)-1,2-oxaborolan-2-ol]",33.5 nM,,,,141 nM,10000 nM,68.3 nM
"COc1ccc(-c2cccc(C3COB(O)C3)c2)cc1OCC1CC1 (centres unmarked) [Example 165, 4-(3′-(cyclopropylmethoxy)-4′-methoxy-[1,1′-biphenyl]-3-yl)-1,2-oxaborolan-2-ol]",2.11 nM,128 nM,990 nM,3.25 nM,,,
"COc1ccc(-c2cccc(C3COB(O)C3)c2)nc1OC (centres unmarked) [Example 152, 4-(3-(5,6-dimethoxypyridin-2-yl)phenyl)-1,2-oxaborolan-2-ol]",1.38 nM,161 nM,828 nM,6.02 nM,,,
"CCCOc1cc(-c2nc(CO)cc(C3COB(O)C3)n2)c(F)cc1OC (single isomer, unassigned; enantiomer 2) [Example 154, (−) 4-(2-(2-fluoro-4-methoxy-5-propoxyphenyl)-6-(hydroxymethyl)pyrimidin-4-yl)-1,2-oxaborolan-2-ol, enantiomer 2]",14.1 nM,31.4 nM,893 nM,15.2 nM,,,
"CCOc1cc(-c2cncc(C3COB(O)C3)c2C)ccc1OC (single isomer, unassigned; enantiomer 2) [Example 189, 4-(5-(3-ethoxy-4-methoxyphenyl)-4-methylpyridin-3-yl)-1,2-oxaborolan-2-ol, enantiomer 2]",2.61 nM,,,1.46 nM,7.72 nM,1460 nM,

# More lines, in order of falling IC50 [1], values ahead:
IC50 [1],"IC50 ([2]; Homo sapiens, PBMC)","IC50 ([3]; Homo sapiens, PBMC)","IC50 ([4]; Homo sapiens, PBMC)",IC50 [2],IC50 [3],IC50 [4],Structure (SMILES)
399 nM,1670 nM,10000 nM,3300 nM,,,,"CCCOc1cc(-c2cccc(C3CCOB(O)C3)n2)ccc1OC (centres unmarked) [Example 26, 4-(6-(4-methoxy-3-propoxyphenyl)pyridin-2-yl)-1,2-oxaborinan-2-ol]"
6.85 nM,6.2 nM,397 nM,1.87 nM,,,,"CCOc1c(OC)ccc(-c2cncc(C3COB(O)C3)c2)c1C(F)F (centres unmarked) [Example 41, 4-(5-(2-(difluoromethyl)-3-ethoxy-4-methoxyphenyl)pyridin-3-yl)-1,2-oxaborolan-2-ol]"
5.14 nM,245 nM,1330 nM,19.6 nM,,,,"CCOc1ccc(-c2cccc(C3COB(O)C3)c2)cc1OC (centres unmarked) [Example 182, 4-(4′-ethoxy-3′-methoxy-[1,1′-biphenyl]-3-yl)-1,2-oxaborolan-2-ol]"
4.43 nM,31.4 nM,1400 nM,5.13 nM,,,,"CCOc1cc(-c2nc(OC)cc(C3COB(O)C3)n2)ccc1OC (single isomer, unassigned; enantiomer 2) [Example 186, (−) 4-(2-(3-ethoxy-4-methoxyphenyl)-6-methoxypyrimidin-4-yl)-1,2-oxaborolan-2-ol, enantiomer 2]"
3.84 nM,176 nM,1500 nM,4.42 nM,,,,"CCOc1c(OC)ccc(-c2cccc(C3COB(O)C3)c2)c1C#N (centres unmarked) [Example 191, 3-ethoxy-3′-(2-hydroxy-1,2-oxaborolan-4-yl)-4-methoxy-[1,1′-biphenyl]-2-carbonitrile]"
3.71 nM,31.1 nM,2510 nM,14.2 nM,,,,"CCOc1c(OC)cc(F)c(-c2cncc(C3COB(O)C3)c2)c1F (centres unmarked) [Example 163, 4-(5-(3-ethoxy-2,6-difluoro-4-methoxyphenyl)pyridin-3-yl)-1,2-oxaborolan-2-ol]"
2.13 nM,105 nM,1660 nM,9.51 nM,,,,"COc1cc(-c2cncc(C3COB(O)C3)c2)ccc1SC (centres unmarked) [Example 201, 4-(5-(3-methoxy-4-(methylthio)phenyl)pyridin-3-yl)-1,2-oxaborolan-2-ol]"
1.8 nM,64.2 nM,520 nM,10 nM,,,,"COc1cc(-c2cccc(C3COB(O)C3)c2)cc(C#N)c1OC (centres unmarked) [Example 117, 3′-(2-hydroxy-1,2-oxaborolan-4-yl)-4,5-dimethoxy-[1,1′-biphenyl]-3-carbonitrile]"
1.38 nM,,,,13.3 nM,748 nM,0.82 nM,"COc1ccc(-c2cncc(C3COB(O)C3)c2)cc1OC1CCSC1 (centres unmarked) [Example 79, 4-(5-(4-methoxy-3-((tetrahydrothiophen-3-yl)oxy)phenyl)pyridin-3-yl)-1,2-oxaborolan-2-ol]"
0.99 nM,2.24 nM,163 nM,1.33 nM,,,,"CCOc1cc(-c2cncc(C3COB(O)C3)n2)ccc1OC (single isomer, unassigned) [Example 24, 4-(6-(3-ethoxy-4-methoxyphenyl)pyrazin-2-yl)-1,2-oxaborolan-2-ol]"
0.98 nM,0.72 nM,2730 nM,0.74 nM,,,,"CCCOc1cc(-c2cncc(C3COB(O)C3)c2)ncc1OC (single isomer, unassigned; enantiomer 1) [Example 179, 4-(5-methoxy-4-propoxy-[2,3′-bipyridin]-5-yl)-1,2-oxaborolan-2-ol, enantiomer 1]"
0.64 nM,,,,0.84 nM,159 nM,1.35 nM,"CCOc1cc(-c2cncc(C3COB(O)C3)c2C)ccc1OC (single isomer, unassigned) [Example 21, 4-(5-(3-ethoxy-4-methoxyphenyl)-4-methylpyridin-3-yl)-1,2-oxaborolan-2-ol]"
0.34 nM,2.04 nM,308 nM,0.53 nM,,,,"CCCOc1nc(-c2cncc(C3COB(O)C3)c2)ccc1OC (centres unmarked) [Example 60, 4-(5-methoxy-6-propoxy-[2,3′-bipyridin]-5′-yl)-1,2-oxaborolan-2-ol]"
